# Experimental data from patent US20230021880A1, “Cladribine regimen for treating progressive forms of Multiple Sclerosis” (Merck Patent GmbH, priority 2017, published 2023).
# Like-named read-outs stand apart in the source and are kept apart here.
# Experiments:
# Plasma protein binding = type: in vitro ADME; settings: independent of plasma concentration
# human hepatocytes = test: In vitro transporter-mediated uptake; type: in vitro ADME
# [1] = Metabolism in hepatic in vitro systems; type: in vitro ADME
# Excerpt: In hepatic in vitro systems, negligible metabolism of Cladribine was observed (at least 90% was unchanged Cladribine)
# mice [2] = test: Repeat-dose toxicology studies by parenteral routes; type: in vivo
# monkeys = test: Repeat-dose toxicology studies by parenteral routes up to 1-year duration; type: in vivo
# bacteria = test: Gene mutation test; type: cell-based
# Procedure: (§1) Cladribine is incorporated into DNA strands and inhibits DNA synthesis and repair. […] In vivo clastogenicity in mice was detected at 10 mg/kg, which was the lowest dose tested.
# mammalian cells = test: Gene mutation test; type: cell-based
# mice [3] = test: In vivo clastogenicity (mouse micronucleus study)
# Procedure: as §1
# Tg rasH2 mice = test: Short-term 26-week carcinogenicity study, oral; type: in vivo
# monkey = test: 1-year monkey study by the subcutaneous route (tumors); type: in vivo
# [4] = tested on: patients with relapsing forms of clinically definite multiple sclerosis; test: Example 3: oral Cladribine induction/maintenance regimen in relapsing forms of MS; type: in vivo, human; settings: induction treatment and maintenance treatments
# Excerpt: The efficacy and safety of oral Cladribine administration, eventually multi-dose administration, as described herein, can alternatively also be assessed for example following the protocol for the treatment of relapsing forms of […] as given below.
# A study of sixty patients with relapsing forms of clinically definite multiple sclerosis is undertaken. Each patient is first examined for normal hepatic, renal, and bone marrow functioning to establish baseline values
# Patients are selected from Male or Female, between 18 and 55 years of age who had one or more relapses within the prior 12 months Female patients are non-pregnant female
# Each of the patients in Groups 2 and 3 receives 3 mg or 10 mg 2-CdA (1, 2 or 3 administration(s) a day depending on the patient's weight) combined in cyclodextrin formulation a described in WO 2004/087101, Example 3. The Compositions of the Cladaribine formulations in 3 mg or 10 mg 2-CdA tablets containing […] are listed in Table 2, below. […]
# Patients are monitored to determine whether there is any progression or improvement of brain lesions associated with progression of MS through MRI scans and neurological examination as described in Miller et at, 1996, above; Evans et al, 1997, above; Sipe et at, 1984, above; and Mattson, 2002, above. […]
# [5] = tested on: patients with relapsing-remitting MS; settings: cited from earlier work; for annualized rate of relapse / relapse-free rate: 96 weeks
# CYP2C8 = CYP2C8 (Homo sapiens, UniProt P10632)
# Sequence of CYP2C8 (P10632 whole entry): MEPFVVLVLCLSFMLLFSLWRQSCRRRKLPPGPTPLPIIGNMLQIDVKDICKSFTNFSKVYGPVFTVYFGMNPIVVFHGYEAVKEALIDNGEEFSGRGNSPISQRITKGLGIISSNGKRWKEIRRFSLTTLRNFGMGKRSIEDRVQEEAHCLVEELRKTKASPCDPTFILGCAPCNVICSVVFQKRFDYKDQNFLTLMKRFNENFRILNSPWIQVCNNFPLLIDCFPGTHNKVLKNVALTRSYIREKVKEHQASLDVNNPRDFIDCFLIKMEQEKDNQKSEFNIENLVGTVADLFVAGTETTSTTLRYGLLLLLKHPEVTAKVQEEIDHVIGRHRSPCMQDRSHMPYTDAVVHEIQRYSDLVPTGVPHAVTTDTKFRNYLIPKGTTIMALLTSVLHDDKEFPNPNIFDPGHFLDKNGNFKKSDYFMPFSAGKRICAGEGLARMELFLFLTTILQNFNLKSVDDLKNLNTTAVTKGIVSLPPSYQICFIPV
# CYP2C19 = CYP2C19 (Homo sapiens, UniProt P33261)
# Sequence of CYP2C19 (P33261 whole entry): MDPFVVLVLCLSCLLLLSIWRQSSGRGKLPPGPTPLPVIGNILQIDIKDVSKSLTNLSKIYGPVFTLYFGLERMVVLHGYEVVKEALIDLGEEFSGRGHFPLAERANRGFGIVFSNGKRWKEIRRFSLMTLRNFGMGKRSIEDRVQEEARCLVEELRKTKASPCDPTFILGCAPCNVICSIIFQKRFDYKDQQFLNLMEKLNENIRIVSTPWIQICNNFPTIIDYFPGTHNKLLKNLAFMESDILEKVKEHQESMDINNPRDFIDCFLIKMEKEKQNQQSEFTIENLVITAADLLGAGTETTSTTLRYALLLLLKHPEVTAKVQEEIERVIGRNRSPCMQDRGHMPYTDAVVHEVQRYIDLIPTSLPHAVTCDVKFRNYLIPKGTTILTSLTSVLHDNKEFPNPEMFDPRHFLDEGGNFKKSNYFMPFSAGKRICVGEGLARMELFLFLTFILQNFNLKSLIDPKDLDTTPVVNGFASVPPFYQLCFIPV
# CYP2D6 = CYP2D6 (Homo sapiens, UniProt P10635)
# Sequence of CYP2D6 (P10635 whole entry): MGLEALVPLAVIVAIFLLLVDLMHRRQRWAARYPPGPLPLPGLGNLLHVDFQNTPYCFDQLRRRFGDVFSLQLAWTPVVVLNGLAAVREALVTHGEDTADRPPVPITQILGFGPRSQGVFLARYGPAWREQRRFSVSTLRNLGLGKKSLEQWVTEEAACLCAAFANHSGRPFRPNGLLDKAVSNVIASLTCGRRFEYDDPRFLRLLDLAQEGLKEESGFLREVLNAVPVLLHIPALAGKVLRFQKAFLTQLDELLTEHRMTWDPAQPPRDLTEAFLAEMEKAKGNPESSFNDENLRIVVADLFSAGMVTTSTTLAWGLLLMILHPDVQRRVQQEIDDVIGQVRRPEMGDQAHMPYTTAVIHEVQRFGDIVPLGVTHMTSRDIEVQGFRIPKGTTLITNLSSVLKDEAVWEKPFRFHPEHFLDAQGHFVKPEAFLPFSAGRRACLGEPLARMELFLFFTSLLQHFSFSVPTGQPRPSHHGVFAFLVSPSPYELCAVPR
# [6] = in vivo; cited from earlier work
# [7] = tested on: patients with relapsing-remitting MS; test: CLARITY study: oral Cladribine vs placebo over 96 weeks
# [8] = Population pharmacokinetic analysis (pooled data from various studies)
# [9] = post-hoc, high disease activity
compound,measurement,setting,value
"Nc1nc(Cl)nc2c1ncn2[C@H]1C[C@H](O)[C@@H](CO)O1 [Cladribine, 2-chloro-2′deoxyadenosine]",fraction unbound,Plasma protein binding,0.8
same,transporter-mediated uptake into human hepatocytes,human hepatocytes,negligible
same,unchanged Cladribine,[1],at least 90%
same,effects on the kidneys,mice [2],Effects on the kidneys were also seen
same,primary target organs,"mice [2]; intravenous or subcutaneous, up to 1-year duration",lymphoid and hematopoietic system
same,primary target organs,"monkeys; intravenous or subcutaneous, up to 1-year duration, monkeys",lymphoid and hematopoietic system
same,testicular effects,monkeys; monkey,Testicular degeneration and reversible decrease in spermatozoa with rapid progressive motility
same,other target organs after longer administration (14 cycles),"monkeys; subcutaneous route, monkeys","kidneys (karyomegaly of renal tubular epithelium), adrenals (cortex atrophy and decreased vacuolation), gastrointestinal tract (mucosa atrophy) and testes"
same,gene mutation,bacteria,did not induce gene mutation
same,gene mutation,mammalian cells,did not induce gene mutation
same,dose at which in vivo clastogenicity was detected (lowest dose tested),mice [3],10 mg/kg
same,exposure multiple vs expected human AUC at maximum daily dose of 20 mg,Tg rasH2 mice; 30 mg/kg per day,approximately 25 fold
same,tumor incidence,"Tg rasH2 mice; 26-week, oral, up to 30 mg/kg per day, Tg rasH2 mice",no Cladribine-related increase in incidence of lymphoproliferative disorders or other tumor types
same,tumor incidence,monkey,No increased incidence in lymphoproliferative disorders and no tumors were seen
same,adverse effect,[4],no severe adverse effect is observed
same,brain lesions,[4]; oral cyclodextrin formulation,efficient in decreasing brain lesions
same,annualized rate of relapse,[5]; 3.5 mg per kilogram cumulative dose,0.14
same,relapse-free rate,[5]; 3.5 mg per kilogram,79.7%
same,annualized rate of relapse,[5]; 5.25 mg per kilogram cumulative dose,0.15
same,relapse-free rate,[5]; 5.25 mg per kilogram,78.9%
same,"hazard ratio, 3-month sustained progression of disability",[5]; 3.5-mg group vs placebo,0.67
same,herpes zoster,[5]; 3.5-mg group,8 patients
same,lymphocytopenia (adverse event frequency),[5]; 3.5-mg group,21.6%
same,"hazard ratio, 3-month sustained progression of disability",[5]; 5.25-mg group vs placebo,0.69
same,herpes zoster,[5]; 5.25-mg group,12 patients
same,lymphocytopenia (adverse event frequency),[5]; 5.25-mg group,31.5%
same,potential to act as inhibitor of CYP2C8,CYP2C8,does not show significant potential to act as inhibitor
same,potential to act as inhibitor of CYP2C19,CYP2C19,does not show significant potential to act as inhibitor
same,potential to act as inhibitor of CYP2D6,CYP2D6,does not show significant potential to act as inhibitor
same,inductive effect on CYP2B6,CYP2B6,no clinically meaningful inductive effect
same,inductive effect on CYP3A4,CYP3A4,no clinically meaningful inductive effect
same,potential to penetrate the blood brain barrier,[6],25%
same,adjusted mean number of active T2 lesions,[7]; 3.5 mg/kg,0.38
same,adjusted mean number of combined unique lesions per patient per scan,[7]; 3.5 mg/kg,0.43
same,incidence of ≥grade 3 lymphopenia,[7]; 3.5 mg/kg group,25.6%
same,relative reduction in the mean number of active T2 lesions,[7]; 3.5 mg/kg vs placebo,73%
same,relative reduction in the mean number of combined unique lesions per patient per scan,[7]; 3.5 mg/kg vs placebo,74%
same,relative reduction in the mean number of T1 Gd+ lesions,"[7]; 3.5 mg/kg vs placebo, brain MRI over 96 weeks",86%
same,adjusted mean number of T1 Gd+ lesions,"[7]; 3.5 mg/kg, brain MRI over 96 weeks",0.12
same,incidence of ≥grade 3 lymphopenia,[7]; 5.25 mg/kg group,44.9%
same,Proportion of patients relapse-free over 96 weeks,[7]; cumulative dose 3.5 mg/kg,79.7%
same,Relative reduction (cladribine vs. placebo) of annualised relapse rate,[7]; cumulative dose 3.5 mg/kg,57.6%
same,"Time to 3-month FDSS progression, 10th percentile (months)",[7]; cumulative dose 3.5 mg/kg,13.6 months
same,Proportion of patients relapse-free over 96 weeks,[7]; cumulative dose 5.25 mg/kg,78.9%
same,Relative reduction (cladribine vs. placebo) of annualised relapse rate,[7]; cumulative dose 5.25 mg/kg,54.5%
same,"Time to 3-month FDSS progression, 10th percentile (months)",[7]; cumulative dose 5.25 mg/kg,13.6 months
same,10th percentile of time to 6-month confirmed EDSS progression,"[7]; post-hoc, 3.5 mg/kg group",not reached at all during the study period
same,"hazard ratio, time to 6-month confirmed EDSS progression","[7]; post-hoc, 3.5 mg/kg vs placebo",0.53
same,reduction of the risk of disability progression (time to 6-month confirmed EDSS progression),"[7]; post-hoc, 3.5 mg/kg vs placebo",47%
same,10th percentile for disability progression,[7]; [9],not reached during the entire study
same,"hazard ratio, time to 6-month sustained disability",[7]; [9],0.18
same,reduction of risk of disability progression (time to 6-month sustained disability),[7]; [9],82%
same,increase in exposure in patients with mild renal impairment,[8]; in vivo,25%
same,non-renal part of the elimination,[8]; in vivo,approximately 50%
same,non-renal clearance (median),[8]; pooled population pharmacokinetic data,23.4 L/h
